This note sets out measurements from patent US7268139B2, “Methods of promoting osteogenesis” (Scios, Inc., priority 2002, dated 2007).

In assay [1] the test system is closed femur fractures in female retired breeder Sprague-Dawley rats. The assay can be described thus: Closed femur fracture healing in rats, torsional mechanical testing. It counts as in vivo, rat. As to the method:
Torsional mechanical testing was performed on the fractured (right) and contralateral (left) femurs from control, rofecoxib (3 mg/kg/day); p38 MAP kinase inhibitor (30 mg/kg/day), and p38 MAP kinase inhibitor (2×30 mg/kg/day). The stabilizing rods were removed from the femurs prior to testing and the femurs were wrapped in saline soaked gauze to prevent dehydration prior to testing. The ends of the femurs were potted in hex nuts with Wood's metal and the peak torque and angle failure determined using an MTS servohydraulic mechanical testing machine and a 20 Nm reaction torque load cell as per standard procedures (Simon, A. M. et al., J. Bone Miner. Res. 17:963-976 (2002)). Femur and fracture callus dimensions and gage length were measured before and after mechanical testing using digital calipers. The values obtained were used to calculate torsional rigidity, and shear stress as described (Simon, A. M. et al., J. Bone Min. Res., in press (2002)). Finally, the data was normalized as the percentage of the fractured femur relative to the contralateral femur for each animal. This helped to reduce animal-to-animal variability.
(§1) Retired breeder female Sprague-Dawley rats were purchased from Taconic Farms. The rats were housed in pairs and given food and water ad libitum. A total of 124 rats were purchased for these experiments (Table 4). However, only 65 rats were used for the final set of experiments as described in Table 4. Drugs were first administered to the rats by gavage using PEG300 (Sigma) as a carrier (0.5 ml per kg). Rats were initially gavaged with drugs 6 hours after surgery (between 4 and 6 PM on day 1) and then twice/day afterwards for 5 days (between 6-8 AM and again between 5-7 PM). The p38 MAP kinase inhibitor used in the experiments is compound 25, Table B. Rofecoxib was obtained by pulverizing Vioxx pills (Merck).
(§2) Rats were anesthetized with a ketamine-xylazine mixture. The right hindlimb was shaved, and cleansed with betadine. A medial parapatellar incision was made through the skin and underlying muscle to the distal end of the femur. The patella was dislocated laterally to expose the femoral condyles. A 20 g needle was used to drill a hole into the distal end of the femur, between the condyles, and then used to ream the femoral canal. A 0.81 mm diameter stainless steel wire was then inserted into the femoral condyle and tamped into the proximal end of the femur. The rod was then trimmed as close as possible to the femoral condyles with wire cutters. The incision was closed in two layers with resorbable Vicryl sutures. A mid-shaft transverse fracture was made in the right femur using a three-point bending device as described previously (Bonnarens, F. and Einhorn, T. A., J. Orthop. Res. 2:97-101 (1984)).
Rats with oblique, comminuted, or infected fractures were not used for mechanical testing (see Appendix A). Both femora were removed and cleaned of all soft tissue leaving the fracture callus undisturbed and then immediately processed for mechanical testing. The samples were wrapped in saline soaked gauze to prevent dehydration between steps. Measurements of the femora were taken using digital calipers to determine femur length and external callus dimensions. The intramedullary pin was removed from the fractured femur. The femoral ends were potted in 1-inch hexnuts using a low melt temperature metal (Wood's metal, Alfa Aesar, Ward Mill, Mass.). Once potted, the gage length (L) of each femur was measured. Torsional testing was conducted using a servohydraulic testing machine (MTS, Eden, Praire, Minn.) with a 20 Nm reaction torque cell (Interface, Scottsdale, Ariz.). The testing was carried out to failure at a rate of 2°/sec and a data recording rate of 20 Hz. Both the fractured and intact femora were tested in internal rotation in proper anatomic orientation. The peak torque and angle at failure were calculated from the load-deformation curves. Internal fracture callus dimensions were measured after mechanical testing. […]

Another assay concerns fracture healing in rats. Kind of assay: Prior experiments: fracture healing in rats treated with a COX-2 inhibitor. The class given is in vivo, rat.
The test system of assay [2] is closed femur fractures in female retired breeder Sprague-Dawley rats. Kind of assay: Closed femur fracture healing in rats, radiographic analysis. It counts as in vivo, rat. The settings on record: for Radiographic score, Mean: Group C rats, score 0 to 4. As to the method: Closed femur fractures were made in female retired breeder Sprague-Dawley rats. The rats were given oral doses of the p38 MAP kinase inhibitor (compound 25, Table B)(30 mg/kg) once or twice per day and either vehicle only (control) or rofecoxib (Vioxx, 3 mg/kg, once a day) as a positive control for fracture inhibition.
as §1, §2
Radiographs were made using an HP Faxitron and Kodak MINR2000 mammography film. Radiographs were photographed with and Olympus C-3040 digital camera for figure preparation. The 4 week post-fracture radiographs from all the rats that had survived to 4 weeks in Group C (rats 60-124) and which were not comminuted, infected, or destabilized were scored as follows. One point was assigned to each radiograph in which a cortex of the fracture callus appeared bridged and/or where the cortical bone fracture site appeared to be bridged by new bone. Thus a radiograph could have a minimal score of 0 or a maximal score of 4.

The test system is the same in assay [3]. Kind of assay: Closed femur fracture healing in rats, histology. The class given is in vivo, rat. The settings on record: for Fracture callus histology: two weeks post-fracture. As for the experimental part: Retired breeder female Sprague-Dawley rats were purchased from Taconic Farms. The rats were housed in pairs and given food and water ad libitum. A total of 124 rats were purchased for these experiments (Table 4). However, only 65 rats were used for the final set of experiments as described in Table 4. Drugs were first administered to the rats by gavage using PEG300 (Sigma) as a carrier (0.5 ml per kg). […] The p38 MAP kinase inhibitor used in the experiments is compound 25, Table B. Rofecoxib was obtained by pulverizing Vioxx pills (Merck).
as §2
Femurs were dissected from rats at 2, 4, 6, and 8 weeks as detailed in Appendix A. Soft tissue was dissected from the femurs and the femurs were fixed overnight in buffered formalin. The femurs were then embedded in polymethylmethacrylate (PMMA) following standard procedures. Longitudinal sections (˜200 um thick) were cut from the PMMA blocks and ground and polished to a thickness of approximately 50-100 um. The sections were then stained with Van Gieson's picrofuschin and Stevenel's Blue. […] Sections were photographed with an Olympus BH2 microscope.

Assay [4] relates to mouse model of RA (collagen type II arthritis). Kind of assay: Murine collagen type II arthritis, early and advanced disease. It counts as in vivo. As to the method:
A p38α MAP kinase inhibitor (compound 162, Table B) was evaluated to determine whether a p38 inhibitor could modulate cartilage and bone destruction in a mouse model of RA. Induction of RA was achieved using bovine type II cartilage (100 ug/kg, subcutaneous on days 0 and 21) and bacterial lipopolysaccharide (50 ug/mouse, intraperitoneal on day 22).
Oral treatment was vehicle alone (1% PEG 400, bid) or the p38 inhibitor (90 mg/kg bid). The duration of treatment was 10 and 20 days in mice with early onset or advanced disease, respectively. Treatment was initiated in mice with early onset or advanced disease. Disease state was determined by clinical scoring performed in a blinded protocol that assigned a maximum per paw value of 3 based upon degree of erythema and swelling observed. Early or advanced disease was judged by clinical scoring, 1.6+0.6 (mean+/−std dev) on day 24 and 9.1±2.6 on day 30, respectively.

Where [5] appears, read: Group C, 4 weeks post-fracture, rofecoxib 3 mg/kg/day.
The mark [6] stands for this setting: Groups A and B, 8 weeks post-fx, rofecoxib 3 mg/kg/day.
Setting [7] is: advanced disease, 90 mg/kg bid oral, 20 days.
The mark [8] stands for this setting: Group C, 4 weeks post-fracture, 30 mg/kg/day.
Where [9] appears, read: Group C, 4 weeks post-fracture, 2×30 mg/kg/day.
Where [10] appears, read: Groups A and B (rats 1-57), twice-a-day treated rats.
Setting [11] is: Groups A and B, 4 weeks post-fx, 30 mg/kg/day.
[12] abbreviates: Groups A and B, 6 weeks post-fx, 30 mg/kg/day.
Where [13] appears, read: Groups A and B, 6 weeks post-fx, 2×30 mg/kg/day.
[14] abbreviates: Groups A and B, 8 weeks post-fx, 2×30 mg/kg/day.

`CS(=O)(=O)c1ccc(C2=C(c3ccccc3)C(=O)OC2)cc1` [Rofecoxib, rofecoxib, reference compound]: the “NSS = normalized shear stress” value in assay [1] (setting [5]) was 13 ± 9; in assay [1] (setting [6]), 16 ± 8. For the same compound, the “NTR = normalized torsional rigidity” value stood at 19 ± 9 in assay [1] (setting [5]) and 100 ± 82 in assay [1] (setting [6]). Further, the “NPT = normalized peak torque” value in assay [1] (Group C, 4 weeks post-fracture, rofecoxib 3 mg/kg/day, percentage of fractured femur relative to contralateral femur) is reported as 32 ± 3; in assay [1] (setting [6]), 57 ± 42. Also, the Fracture healing result in the assay on fracture healing in rats is “dramatically impaired”. Moreover, the “Radiographic score, Mean” value in assay [2] (4 weeks post-fracture, rofecoxib 3 mg/kg oral once a day for 5 days) stood at 0.83. Further, the “Bridging of the fracture in radiographs” value in assay [2] (4 weeks post-fracture, rofecoxib 3 mg/kg once a day) is “little or no bridging was evident”. Moreover, in assay [3] (rofecoxib, 5 days of treatment), the Fibrous non-unions result was “development of fibrous non-unions in some of the rofecoxib treated rats”. Besides, in assay [3] (rofecoxib 3 mg/kg once a day), the Fracture callus histology was “less woven bone formation was observed”.

Regarding `COc1cc2c(cc1C(=O)N1CCC(Cc3ccc(F)cc3)CC1)c(C(=O)C(=O)N(C)C)cn2C` [compound 25], in assay [4] (setting [7]), the “cartilage and bone healing by histological assessment” value is “evidence of cartilage and bone healing”. Moreover, in assay [4] (setting [7]), the “serum cartilage oligomeric matrix protein (COMP)” value is listed as “reduced serum cartilage oligomeric matrix protein”. Moreover, the osteoclast number result in assay [4] (advanced disease, compared to baseline and vehicle treated groups) is on record as “reduced osteoclast number”. The same compound registered a clinical scoring in assay [4] (treatment initiated in advanced disease, 90 mg/kg bid oral, 20 days, vehicle 9.1±2.2) of 4.9±1.7. In addition, in assay [1] (Group C, 4 weeks post-fracture), the “Normalized peak torque compared with rofecoxib and control” value is on record as “significantly increased normalized peak torque relative to rofecoxib treated rats but not relative to the control animals”. Further, the “NSS = normalized shear stress” value came to 15 ± 8 in assay [1] (setting [8]); 10 ± 4 in assay [1] (setting [9]); 14.1 in assay [1] (setting [11]); 36 ± 11 in assay [1] (setting [12]); 63 in assay [1] (setting [13]); 45 ± 1 in assay [1] (setting [14]). Also, the “NTR = normalized torsional rigidity” value in assay [1] (setting [8]) turned out to be 28 ± 24; in assay [1] (setting [9]), 61 ± 55; in assay [1] (setting [11]) it was 69; in assay [1] (setting [12]), 109 ± 52; in assay [1] (setting [13]), 126; in assay [1] (setting [14]), 156 ± 68. Moreover, the “NPT = normalized peak torque” value was 50 ± 11 in assay [1] (Group C, 4 weeks post-fracture, 30 mg/kg/day, percentage of fractured relative to contralateral femur); 48 ± 14 in assay [1] (Group C, 4 weeks post-fracture, 2×30 mg/kg/day, percentage of fractured relative to contralateral femur); 57 in assay [1] (setting [11]); 85 ± 17 in assay [1] (setting [12]); 97 in assay [1] (setting [13]); 158 ± 46 in assay [1] (setting [14]). The compound also had a normalized peak torque in assay [1] (setting [10]) of roughly 150%. This compound yielded a normalized torsional rigidity in assay [1] (setting [10]) of roughly 150%. Also, the “Radiographic scores compared with control and rofecoxib” value in assay [2] (4 week post-fracture radiographs, 30 mg/kg once or twice per day) is reported as “significantly higher scores than the control or rofecoxib treated rats”. The “Radiographic score, Mean” value in assay [2] (4 weeks post-fracture, 30 mg/kg oral once per day for 5 days) came to 3.2; in assay [2] (4 weeks post-fracture, 30 mg/kg oral twice per day for 5 days), 3.75. The “Effect on fracture healing (overall)” value in assay [2] (oral 30 mg/kg once or twice per day) was “does not negatively affect fracture healing and can actually enhance or accelerate the healing process”. Further, the “Histological analysis of fracture healing (summary)” value in assay [3] (30 mg/kg once or twice per day) was “enhanced fracture healing by increasing and/or accelerating calcified cartilage formation as well as new bone formation”. In assay [3] (not quantified), the “Amount of osteoclasts within the fracture callus” value is listed as “appeared to approximate levels found in control rats”. For the same compound, the Fracture callus histology in assay [3] (30 mg/kg once per day) is listed as “a near normal amount of woven bone but more than normal amounts of chondrocytes”; in assay [3] (30 mg/kg twice per day), “advanced healing with the fracture gap almost filled with newly formed woven bone”.

`C[C@@H]1CN(Cc2ccc(F)cc2)[C@@H](C)CN1C(=O)c1cc2c(C(=O)C(=O)N(C)C)c[nH]c2cc1Cl` [compound 162]: the “Histological analysis of joint lesion morphology” value in assay [4] (treatment initiated at onset of disease, 90 mg/kg bid oral, 10 days) is “dramatic reduction in all aspects of joint lesion morphology including reduced cartilage and bone erosions”. This compound came in with a clinical scoring in assay [4] (treatment initiated at onset of disease, 90 mg/kg bid oral, 10 days, mean ± std dev, vehicle 7.0±3.4) of 2.4±1.5.
